Patent publication US20220064196A1, “EGFR Inhibitors, Compositions and Methods Thereof” (Betta Pharmaceuticals Co., Ltd., priority 2019, published 2022)
Read-outs that look alike come from different tables or passages of the source. Values belong to the compound of their own block, whether it stands above or below them.

Columns and labels:
[1] = target: EGFR Del19/T790M/C797S (Homo sapiens, UniProt P00533, T790M/C797S, form not given); assay: Kinase assay (mobility shift), EGFR Del19/T790M/C797S; assay type: biochemical
Chain of EGFR Del19/T790M/C797S (P00533 with tags, fused parts or gaps DEL746-750/T790M/C797S, form open): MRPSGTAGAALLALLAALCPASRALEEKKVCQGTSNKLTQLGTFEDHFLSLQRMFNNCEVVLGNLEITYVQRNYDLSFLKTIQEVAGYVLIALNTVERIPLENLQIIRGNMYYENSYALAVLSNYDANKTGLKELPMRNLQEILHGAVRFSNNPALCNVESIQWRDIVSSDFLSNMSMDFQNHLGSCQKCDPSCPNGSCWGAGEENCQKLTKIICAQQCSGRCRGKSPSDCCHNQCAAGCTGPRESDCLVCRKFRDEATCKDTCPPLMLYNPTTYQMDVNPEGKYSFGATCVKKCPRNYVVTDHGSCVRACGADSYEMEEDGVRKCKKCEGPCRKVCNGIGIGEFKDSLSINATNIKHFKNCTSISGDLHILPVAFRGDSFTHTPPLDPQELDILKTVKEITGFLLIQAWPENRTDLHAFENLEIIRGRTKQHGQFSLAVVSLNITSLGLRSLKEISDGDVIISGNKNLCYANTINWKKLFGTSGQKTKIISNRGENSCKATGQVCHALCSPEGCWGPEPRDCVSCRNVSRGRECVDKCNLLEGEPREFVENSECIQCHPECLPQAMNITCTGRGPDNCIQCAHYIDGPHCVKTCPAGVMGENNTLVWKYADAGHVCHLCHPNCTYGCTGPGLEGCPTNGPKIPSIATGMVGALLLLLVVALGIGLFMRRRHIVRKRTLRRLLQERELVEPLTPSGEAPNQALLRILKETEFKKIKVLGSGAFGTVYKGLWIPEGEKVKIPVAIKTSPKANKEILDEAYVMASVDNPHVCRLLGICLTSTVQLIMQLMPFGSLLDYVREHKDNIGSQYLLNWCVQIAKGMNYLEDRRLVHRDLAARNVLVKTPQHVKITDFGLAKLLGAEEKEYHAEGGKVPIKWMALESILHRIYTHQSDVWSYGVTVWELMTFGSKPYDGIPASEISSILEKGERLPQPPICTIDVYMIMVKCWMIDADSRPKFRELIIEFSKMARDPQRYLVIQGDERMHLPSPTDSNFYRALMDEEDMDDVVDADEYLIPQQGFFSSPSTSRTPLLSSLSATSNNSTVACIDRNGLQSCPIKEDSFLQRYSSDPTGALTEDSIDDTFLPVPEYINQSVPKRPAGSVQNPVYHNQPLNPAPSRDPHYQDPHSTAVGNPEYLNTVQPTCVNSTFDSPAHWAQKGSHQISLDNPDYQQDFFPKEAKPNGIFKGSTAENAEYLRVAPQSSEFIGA
Protocol: (§1) Test 1 Kinase Assay for EGFR Del19/T790M/C797S and EGFR Wildtype
(§2) Enzyme reaction protocol are as follows:
(§3) 1. Preparing 1* Kinase buffer as followed.
(§4) 2. Preparing Compound Concentration Gradient: Compounds were tested at a concentration of 300 nM, diluted to 100-fold final concentration in 100% DMSO solution in 96-well plates, and compounds were diluted 3 times with Precision, 10 concentrations. Each concentration of the compound was then further diluted to a 5-fold final concentration of the intermediate dilution solution using 1* Kinase buffer.
(§5) 3.5 μL of each of the prepared intermediate dilution compounds was separately added to the compound wells of the 384-well plate, and each concentration was tested for duplicate wells; 5 μL of 5% DMSO was added to the negative control wells and the positive control wells, respectively.
(§6) 4. 2.5-fold final concentration of the kinase solution was prepared using 1*Kinase buffer.
(§7) 5. Add 10 μL of 2.5-fold final concentration of kinase solution to the compound well and positive control well; add 10 μL of 1*Kinase buffer to the negative control well.
(§8) 6. Centrifuge at 1000 rpm for 30 seconds, shake the reaction plate and incubate for 10 minutes at room temperature.
(§9) 7. A mixed solution of 2.5 times the final concentration of ATP and Kinase substrate (5-FAM-EEPLYWSFPAKKK-CONH2) was prepared using 1*Kinase buffer.
(§10) 8. 10 μL of a 2.5-fold final concentration of a mixed solution of ATP and a substrate was added to initiate the reaction.
(§11) 9. Centrifuge the 384-well plate at 1000 rpm for 30 seconds, mix by shaking, and incubate at room temperature for the corresponding time.
(§12) 10. Add 30 μL of the stop solution to stop the kinase reaction, centrifuge at 1000 rpm for 30 seconds, and mix by shaking.
(§13) 11. Read the conversion rate with Caliper EZ Reader.
(§14) Convert conversion values to inhibition values:
(§15) Percent inhibition 32 (max-conversion)/(max-min)*100.
(§16) “max” stands for the mean value of the positive control well ratio; “min” stands for the mean value of the negative control well.
(§17) Fit the data in log(inhibitor) vs. response Variable slope of GraphPad Prism 5 to obtain IC50 values.
(§18) Equation used is: Y=Bottom+(Top-Bottom)/(1+(IC50/X)^HillSlope)

[2] = target: Ba/F3-Del19/T790M/C797S (Homo sapiens, UniProt P00533, T790M/C797S, cells depend on it, form not given); assay: Ba/F3-Del19/T790M/C797S cells proliferation assay (CellTiter Glo); assay type: cell-based; details: cell proliferation, 72 h, read-out: Ba/F3-Del19/T790M/C797S IC50
Chain of Ba/F3-Del19/T790M/C797S (P00533 with tags, fused parts or gaps DEL746-750/T790M/C797S, form open): as above
Protocol: (§19) a) The medium was preheated in a 37°0 C. water bath in advance.
(§20) b) Remove the cryogenic vials from the liquid nitrogen tank, quickly put it into a 37° C. water bath, and completely melt it in 1 min.
(§21) c) Transfer the cell suspension to a 15 mL centrifuge tube containing 8 mL medium, centrifuge 1000 rpm, 5 min.
(§22) d) Discard the supernatant, resuspend the cells in 1 mL medium, and transfer to a 75 cm^2 flask containing 15 mL medium, culture the cells in an incubator at 37° C., 5% CO2.
(§23) a) The medium was preheated in a 37° C. water bath in advance.
(§24) b) Collect cell to a 15 mL centrifuged tube, centrifuge at 1000 rpm for 5 min. Discard the supernatant, count, and make the cell density at 1×10^4 cells/mL, then place it in a 37° C., 5% CO2 incubator.
(§25) a) The test compound (20 mM stock solution) was diluted to 200uM with 100% DMSO as starting concentration then 3-fold serial diluted with “9+0” concentrations. in a 96-well dilution plate (Cat # P-05525, Labcyte);
(§26) b) The above compound solution was diluted 1:20 times with culture medium to prepare a 10 fold working solution;
(§27) a) Take cells in log phase growth, centrifuge at 1000 rpm for 5 min, then resuspend the cells with culture medium, then count cells;
(§28) b) Cells were seeded to 96-well cell culture plate with density at 2000 cells/well;
(§29) a) Compounds prepared at step 2 were added to cell plate with 15 μL per well, the final concentrations were 1000,333, 111.1, 37,12.3, 4.1, 1.4, 0.5, 0.2 and 0 nM, and the final concentration of DMSO was 0.5%. The blank control well was a culture medium (0.5% DMSO);
(§30) b) The cells were incubated for an additional 72 h in the incubator.
(§31) a) Remove the 96-well cell culture plate and add 50 μl of CTG reagent (CellTiter Glo kit, promega, Cat # G7573).
(§32) b) Plate was shaked for 2 min and then let it cool for 10 min at room temperature.
(§33) c) The Luminescence signal value was read using a PerkinElmer reader. Experimental data analysis
(§34) Data were analyzed using GraphPad Prism 6.0 software to obtain a fitted curve of compound activity.
(§35) Fit the Compound IC50 from non-linear regression equation:
(§36) Y=Bottom+(Top-Bottom)/(1+10((LogIC50-X)×Hill Slope));
(§37) X: The log of the concentration of the compound; Y: Luminescence value.
(§38) The cells proliferation assay results are expressed with IC50, shown as Table 2.

[3] = target: Ba/F3-L858R/T790M/C797S (Homo sapiens, UniProt P00533, T790M/C797S/L858R, cells depend on it); assay: Ba/F3-L858R/T790M/C797S cells proliferation assay (CellTiter Glo); assay type: cell-based; details: cell proliferation, 72 h, read-out: Ba/F3-L858R/T790M/C797S IC50
Protocol: as §19, §20, §21, §22, §23, §24, §25, §26, §27, §28, §29, §30, §31, §32, §33, §34, §35, §36, §37, §38

[4] = tested on: A431 (WT); assay: A431 cells proliferation assay (CellTiter Glo); assay type: cell-based; details: Homo sapiens, A-431; cell proliferation, 72 h
Protocol: Test 4 A431 Cells Proliferation Assay
DMEM and 10% FBS and 1% PS.
as §23, §20, §21, §22, §24
a) The test compound (20 mM stock solution) was diluted to 2 mM with 100% DMSO as starting concentration then 3-fold serial diluted with “9+0” concentrations. in a 96-well dilution plate (Cat # P-05525, Labcyte);
b) The above compound solution was diluted 1:40 times with culture medium to prepare a 5 fold working solution;
as §27
b) Cells were seeded to 96-well cell culture plate with density at 5000 cells/well;
a) Compounds prepared at step 2 were added to cell plate with 40 μL per well, the final concentrations were 10000, 3333,1111.1, 370.4, 123.5, 41.2, 13.7, 4.6, 1.5 and 0 nM, and the final concentration of DMSO was 0.5%. The blank control well was a culture medium (0.5% DMSO);
as §30
a) Remove the 96-well cell culture plate and add 60 μl of CTG reagent (CellTiter Glo kit, promega, Cat # G7573).
as §32
c) The Luminescence signal value was read using a PerkinElmer reader.
Experimental Data Analysis
as §34, §35
Y=Bottom+(Top-Bottom)/(1+10((LogIC50-X)×HillSlope));
as §37
The cells proliferation assay results are expressed with IC50, shown as Table 3.

[5] = target: EGFR L858R/T790M/C797S (Homo sapiens, UniProt P00533, C797S/L858R/T790M); assay: Kinase assay (mobility shift), EGFR L858R/T790M/C797S; assay type: biochemical
Chain of EGFR L858R/T790M/C797S (P00533 25-1210 T790M/C797S/L858R): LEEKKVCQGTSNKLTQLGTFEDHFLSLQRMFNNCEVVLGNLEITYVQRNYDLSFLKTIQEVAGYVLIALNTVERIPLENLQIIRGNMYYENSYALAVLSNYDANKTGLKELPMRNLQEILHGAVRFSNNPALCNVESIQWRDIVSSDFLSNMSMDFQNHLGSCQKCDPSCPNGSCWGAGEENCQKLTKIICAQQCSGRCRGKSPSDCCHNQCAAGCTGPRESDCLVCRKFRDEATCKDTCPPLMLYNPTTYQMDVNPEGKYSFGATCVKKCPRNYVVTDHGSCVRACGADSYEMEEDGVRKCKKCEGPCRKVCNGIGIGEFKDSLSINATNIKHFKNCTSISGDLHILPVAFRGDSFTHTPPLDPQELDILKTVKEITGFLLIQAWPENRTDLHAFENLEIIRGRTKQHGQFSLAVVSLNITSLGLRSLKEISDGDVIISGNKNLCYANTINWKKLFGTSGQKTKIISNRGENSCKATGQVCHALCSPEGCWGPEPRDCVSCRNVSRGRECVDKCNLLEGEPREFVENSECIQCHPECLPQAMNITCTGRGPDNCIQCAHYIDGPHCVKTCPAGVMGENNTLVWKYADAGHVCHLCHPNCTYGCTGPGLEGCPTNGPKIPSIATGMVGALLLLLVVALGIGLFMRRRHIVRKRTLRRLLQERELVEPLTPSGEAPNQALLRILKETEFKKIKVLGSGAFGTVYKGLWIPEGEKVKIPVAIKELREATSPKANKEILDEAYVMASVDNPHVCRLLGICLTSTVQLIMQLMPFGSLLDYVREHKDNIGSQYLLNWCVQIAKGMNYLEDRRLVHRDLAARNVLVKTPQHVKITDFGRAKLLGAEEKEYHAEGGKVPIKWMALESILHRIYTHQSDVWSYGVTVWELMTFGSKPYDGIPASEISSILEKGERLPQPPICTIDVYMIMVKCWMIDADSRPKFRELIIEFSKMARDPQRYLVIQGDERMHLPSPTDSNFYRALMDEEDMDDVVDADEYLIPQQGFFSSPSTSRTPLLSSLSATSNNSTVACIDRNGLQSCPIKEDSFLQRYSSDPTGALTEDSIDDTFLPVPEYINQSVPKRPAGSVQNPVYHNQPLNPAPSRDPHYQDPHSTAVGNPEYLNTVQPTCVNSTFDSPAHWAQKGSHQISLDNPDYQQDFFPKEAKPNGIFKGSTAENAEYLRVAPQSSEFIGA
Protocol: [Worded in the source for another variant; this variant is reported under the same test.] as §1, §2, §3, §4, §5, §6, §7, §8, §9, §10, §11, §12, §13, §14, §15, §16, §17, §18

[6] = target: EGFR WT (Homo sapiens, UniProt P00533); assay: Kinase assay (mobility shift), EGFR wildtype; assay type: biochemical; details: top concentration 300 nM
Chain of EGFR WT (P00533 25-1210): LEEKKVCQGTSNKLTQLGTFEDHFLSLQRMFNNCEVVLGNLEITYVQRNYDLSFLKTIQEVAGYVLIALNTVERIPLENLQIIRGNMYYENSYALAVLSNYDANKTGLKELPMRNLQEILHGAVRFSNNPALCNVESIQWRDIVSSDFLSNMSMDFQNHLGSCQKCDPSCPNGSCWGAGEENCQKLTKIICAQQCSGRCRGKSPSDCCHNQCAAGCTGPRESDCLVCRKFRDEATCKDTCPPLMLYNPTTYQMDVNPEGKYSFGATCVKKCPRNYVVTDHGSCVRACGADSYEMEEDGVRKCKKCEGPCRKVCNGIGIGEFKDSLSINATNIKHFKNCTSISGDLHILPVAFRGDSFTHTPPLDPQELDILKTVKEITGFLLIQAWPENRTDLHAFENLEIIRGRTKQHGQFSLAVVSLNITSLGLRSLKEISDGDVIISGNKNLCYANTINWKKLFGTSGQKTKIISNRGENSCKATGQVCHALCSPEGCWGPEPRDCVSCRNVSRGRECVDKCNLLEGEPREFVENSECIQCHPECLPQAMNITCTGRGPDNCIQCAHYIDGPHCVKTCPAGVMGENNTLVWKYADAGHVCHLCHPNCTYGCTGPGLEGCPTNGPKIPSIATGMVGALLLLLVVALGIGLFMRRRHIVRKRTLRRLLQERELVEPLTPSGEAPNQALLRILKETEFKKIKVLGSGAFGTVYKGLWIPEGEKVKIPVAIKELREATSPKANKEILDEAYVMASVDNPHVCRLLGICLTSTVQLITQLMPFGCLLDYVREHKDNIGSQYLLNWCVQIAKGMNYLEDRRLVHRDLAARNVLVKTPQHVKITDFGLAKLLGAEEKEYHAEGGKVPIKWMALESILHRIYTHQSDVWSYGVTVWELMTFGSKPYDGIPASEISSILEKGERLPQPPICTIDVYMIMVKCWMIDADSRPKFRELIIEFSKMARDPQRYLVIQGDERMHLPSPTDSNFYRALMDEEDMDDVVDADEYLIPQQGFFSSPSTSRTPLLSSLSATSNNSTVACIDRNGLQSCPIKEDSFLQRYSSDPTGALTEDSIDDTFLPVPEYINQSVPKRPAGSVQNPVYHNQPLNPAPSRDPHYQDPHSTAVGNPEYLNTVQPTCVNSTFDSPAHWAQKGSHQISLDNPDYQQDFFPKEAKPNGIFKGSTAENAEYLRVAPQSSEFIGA
Protocol: as §1, §2, §3, §4, §5, §6, §7, §8, §9, §10, §11, §12, §13, §14, §15, §16, §17, §18

GI50 ([2]; numeric values): 16.9 nM
IC50 [6]: 35 nM
GI50 ([3]; numeric values): 32.9 nM
IC50 ([5]; numeric values): 1.6 nM
IC50 [4]: 95.5 nM
SMILES: CP(C)(=O)c1ccccc1Nc1nc(Nc2ccc(N3CCC4(CC3)CC(N)C4)c(F)c2)ncc1Cl [Example 29, (2-((2-((4-(2-amino-7-azaspiro[3.5]nonan-7-yl)-3-fluorophenyl)amino)-5-chloropyrimidin-4-yl)amino)phenyl)dimethylphosphine oxide]

GI50 ([2]; class symbols): 10 to 50 nM
IC50 [6]: 33 nM
GI50 ([3]; class symbols): 10 to 50 nM
IC50 ([5]; numeric values): 1.6 nM
SMILES: CP(C)(=O)c1ccccc1Nc1nc(Nc2ccc(N3CCC4(CC3)CC(NC3CCCC3)C4)c(Cl)c2)ncc1Cl [Example 31, (2-((5-chloro-2-((3-chloro-4-(2-(cyclopentylamino)-7-azaspiro[3.5]nonan-7-yl)phenyl)amino)pyrimidin-4-yl)amino)phenyl)dimethylphosphine oxide]

GI50 ([2]; class symbols): > 50 nM
IC50 [6]: 65 nM
GI50 ([3]; class symbols): > 50 nM
IC50 ([5]; numeric values): 3.2 nM
SMILES: CP(C)(=O)c1ccccc1Nc1nc(Nc2ccc(N3CCC4(CC3)CC(NCCO)C4)c(Cl)c2)ncc1Cl [Example 32, (2-((5-chloro-2-((3-chloro-4-(2-((2-hydroxyethyl)amino)-7-azaspiro[3.5]nonan-7-yl)phenyl)amino)pyrimidin-4-yl)amino)phenyl)dimethylphosphine oxide]

IC50 [1]: 0.4 nM
GI50 ([2]; numeric values): 9.7 nM
GI50 ([3]; numeric values): 11.7 nM
IC50 [4]: 47 nM
SMILES: CP(C)(=O)c1ccccc1Nc1nc(Nc2ccc(N3CCC4(CC3)CC(N3CCCC3)C4)c(Cl)c2)ncc1Cl [Example 33, (2-((5-chloro-2-((3-chloro-4-(2-(pyrrolidin-1-yl)-7-azaspiro[3.5]nonan-7-yl)phenyl)amino)pyrimidin-4-yl)amino)phenyl)dimethylphosphine oxide]

IC50 [1]: 0.53 nM
GI50 ([2]; numeric values): 14.7 nM
GI50 ([3]; numeric values): 21.7 nM
IC50 [4]: 53 nM
SMILES: CN(C)[C@@H]1CCN(C2CC3(CCN(c4ccc(Nc5ncc(Cl)c(Nc6ccccc6P(C)(C)=O)n5)cc4Cl)CC3)C2)C1 [Example 34, (R)-(2-((5-chloro-2-((3-chloro-4-(2-(3-(dimethylamino)pyrrolidin-1-yl)-7-azaspiro[3.5]nonan-7-yl)phenyl)amino)pyrimidin-4-yl)amino)phenyl)dimethylphosphine oxide]

Continued, compound first:

SMILES: CP(C)(=O)c1ccccc1Nc1nc(Nc2ccc(N3CC4(CCC(NCCO)CC4)C3)c(Cl)c2)ncc1Cl [Example 12, (2-((5-chloro-2-((3-chloro-4-(7-((2-hydroxyethyl)amino)-2-azaspiro[3.5]nonan-2-yl)phenyl)amino)pyrimidin-4-yl)amino)phenyl)dimethylphosphine oxide]
IC50 [1]: 1 nM
GI50 ([2]; numeric values): 24.4 nM
GI50 ([3]; class symbols): 10 to 50 nM
IC50 [4]: 121 nM

SMILES: CN(C)C1CCC2(CC1)CN(c1ccc(Nc3ncc(Cl)c(Nc4ccccc4P(C)(C)=O)n3)cc1)C2 [Example 13, (2-((5-chloro-2-((4-(7-(dimethylamino)-2-azaspiro[3.5]nonan-2-yl)phenyl)amino)pyrimidin-4-yl)amino)phenyl)dimethylphosphine oxide]
IC50 [1]: 0.6 nM
GI50 ([2]; class symbols): ≤ 10 nM
GI50 ([3]; class symbols): ≤ 10 nM
IC50 ([5]; numeric values): 1.3 nM
IC50 [4]: 41.6 nM

SMILES: CN(C)C1CC2(CCN(c3ccc(Nc4ncc(Cl)c(Nc5ccccc5P(C)(C)=O)n4)cc3)CC2)C1 [Example 17, (2-((5-chloro-2-((4-(2-(dimethylamino)-7-azaspiro[3.5]nonan-7-yl)phenyl)amino)pyrimidin-4-yl)amino)phenyl)dimethylphosphine oxide]
IC50 [1]: 0.7 nM
GI50 ([2]; class symbols): ≤ 10 nM
GI50 ([3]; class symbols): ≤ 10 nM
IC50 [4]: 35 nM

SMILES: CN(C)C1CC2(CCN(c3ccc(Nc4ncc(Cl)c(Nc5ccccc5P(C)(C)=O)n4)cc3C(F)(F)F)CC2)C1 [Example 19, (2-((5-chloro-2-((4-(2-(dimethylamino)-7-azaspiro[3.5]nonan-7-yl)-3-(trifluoromethyl)phenyl)amino)pyrimidin-4-yl)amino)phenyl)dimethylphosphine oxide]
GI50 ([2]; class symbols): 10 to 50 nM
IC50 [6]: > 300 nM
GI50 ([3]; class symbols): 10 to 50 nM
IC50 ([5]; numeric values): 4.5 nM
IC50 [4]: 349 nM

SMILES: Cc1cc(Nc2nc(Nc3ccccc3P(C)(C)=O)c3nc[nH]c3n2)ccc1N1CCC2(CC1)CC(N)C2 [Example 21, (2-((2-((4-(2-amino-7-azaspiro[3.5]nonan-7-yl)-3-methylphenyl)amino)-9H-purin-6-yl)amino)phenyl)dimethylphosphine oxide]
GI50 ([2]; class symbols): > 50 nM
IC50 [6]: 20 nM
GI50 ([3]; class symbols): > 50 nM
IC50 ([5]; numeric values): 0.9 nM
IC50 [4]: 367 nM

SMILES: Cc1cc(Nc2ncc(C#N)c(Nc3ccccc3P(C)(C)=O)n2)ccc1N1CCC2(CC1)CC(N)C2 [Example 28, 2-((4-(2-amino-7-azaspiro[3.5]nonan-7-yl)-3-methylphenyl)amino)-4-((2-(dimethylphosphoryl)phenyl)amino)pyrimidine-5-carbonitrile]
GI50 ([2]; class symbols): > 50 nM
IC50 [6]: > 300 nM
GI50 ([3]; class symbols): > 50 nM
IC50 ([5]; class symbols): > 10 nM
